Measurements: PMC4210897, “Antimicrobial Activity of Peptides Derived from Olive Flounder Lipopolysaccharide Binding Protein/Bactericidal Permeability-Increasing Protein (LBP/BPI)” (Marine Drugs, 2014)
Where no end group is shown, it is not given here.

What was measured:
S. enterica KCTC2514 = assay: URDA, MEC; format: cell-based, Salmonella enteric; settings: S. enterica KCTC2514, Gram −, pH 6.6, 37 °C, triplicate averaged
Experimental: (§1) The antimicrobial activity of the purified peptide was assessed as described previously. We tested the synthetic peptides against several Gram-positive bacteria including two Bacillus subtilis strains, Micrococcus luteus, Staphylococcus aureus, and Streptococcus iniae, Gram-negative bacteria including three Escherichia coli strains, Aeromonas hydrophila, Edwardsiella tarda, Pseudomonas aeruginosa, Vibrio parahemolyticus, and Salmonella enteric, as well as the yeast Candida albicans. All strains were grown overnight for 18 h in trypticase soy broth (TSB) or sabouraud dextrose broth (SDB) at the appropriate temperature (25 °C for A. hydrophila, E. tarda, P. aeruginosa, S. iniae, and V. parahemolyticus and 37 °C for the other strains). After an overnight incubation, the bacterial and C. albicans suspensions were diluted to a McFarland turbidity standard of 0.5 (Vitek Colorimeter #52-1210; Hach, Loveland, CO, USA) corresponding to ~10^8 CFU/mL for bacteria and ~10^6 CFU/mL for C. albicans. One-half milliliter of diluted bacterial or C. albicans suspension was added to 9.5 mL of underlay gel containing 5 × 10^6 CFU/mL or 5 × 10^4 CFU/mL in 10 mM phosphate buffer (PB; pH 6.6) with 0.03% TSB or 0.03% SDB and 1% Type I (low EEO) agarose. The purified peptide was serially diluted twofold in 5 μL of acidified water (0.01% HAc), and each dilution was added to 2.5-mm-diameter wells made in the 1-mm-thick underlay gels. After incubation for 3 h at either 25 °C (for A. hydrophila, E. tarda, P. aeruginosa, S. iniae, and V. parahemolyticus) or 37 °C (the other strains), the bacterial or yeast suspension was overlaid with 10 mL of double-strength overlay gel containing 6% TSB or 6% SDB with 10 mM PB (pH 6.6) in 1% agarose. Plates were incubated for an additional 18–24 h, after which the clearing zone diameters were measured. After subtracting the diameter of the well, the clearing zone diameter was expressed in units (0.1 mm = 1 U).
(§2) All tested bacteria and yeast were prepared as described above. The minimal effective concentration (MEC, μg/mL) of the synthetic peptides was calculated as the x-intercept of a plot of units against the log10 of the peptide concentration. […] The antimicrobial assay was performed in triplicate and the results were averaged.

[1] = tested on: E. coli ML35p outer membrane; assay: Outer membrane permeabilization, NPN uptake assay; format: cell-based, Escherichia coli; settings: peptide 40 μg/mL, 3 min after addition, 25 °C, 5 mM HEPES pH 7.2; order 2A > 6A > 1N > 5A; triplicate
Experimental: (§3) The outer membrane-permeabilizing activity of peptides was determined using the 1-N-phenylnapthylamine (NPN) uptake assay as described by Koo et al.. Briefly, an overnight culture of E. coli ML35p was transferred to fresh TSB medium and grown to A600 of 0.5–0.6. Cells were harvested, washed, and resuspended in the same volume of buffer (5 mM HEPES, pH 7.2, 5 mM KCN, and 5 mM glucose). Next, 20 μL of 0.5 mM NPN was added and mixed with 1 mL of cells, and peptide samples (40 μg/mL) were added after 3 min. The increase in fluorescence due to partitioning of NPN into the outer membrane was measured 3 min after the addition of peptides using a spectrofluorometer (LS 50B Fluorescence Spectrometer; PerkinElmer, Waltham, MA, USA) at an excitation wavelength of 350 nm and an emission wavelength of 420 nm at 25 °C. The extent of cytoplasmic membrane permeabilization was determined by measuring β-galactosidase activity in E. coli ML35p using O-nitrophenyl-β-D-galactopyranoside (ONPG), a nonmembrane-permeative chromogenic substrate. Mid-logarithmic phase E. coli cells were washed in 10 mM sodium phosphate buffer (NaPB), pH 7.4, and resuspended in the same buffer with 1.5 mM ONPG. The hydrolysis of ONPG to O-nitrophenol over time was monitored spectrophotometrically at 420 nm following the addition of peptide samples. Membrane permeabilization assays were performed in triplicate and the results were averaged.

A. hydrophila KCTC2358 = assay: URDA, MEC; format: cell-based, Aeromonas hydrophila; settings: fish pathogen A. hydrophila KCTC2358, Gram −, pH 6.6, 25 °C, triplicate averaged
Experimental: as §1, §2

S. iniae FP5229 = assay: URDA, MEC; format: cell-based, Streptococcus iniae; settings: fish pathogen S. iniae FP5229, Gram +, pH 6.6, 25 °C, triplicate averaged
Experimental: as §1, §2

M. luteus ATCC9341 = assay: URDA, MEC; format: cell-based, Micrococcus luteus; settings: M. luteus ATCC9341, Gram +, pH 6.6, 37 °C, triplicate averaged
Experimental: as §1, §2

[2] = tested on: E. coli ML35p inner cytoplasmic membrane; assay: Cytoplasmic membrane permeabilization, β-galactosidase/ONPG assay; format: cell-based, Escherichia coli; settings: peptide 40 μg/mL, 10 mM NaPB pH 7.4, 1.5 mM ONPG; triplicate
Experimental: as §3

E. coli ML35p = assay: URDA, MEC; format: cell-based, Escherichia coli; settings: Gram −, pH 6.6, 37 °C, triplicate averaged
Experimental: as §1, §2

E. coli KCTC1116 = assay: URDA, MEC; format: cell-based, Escherichia coli; settings: E. coli KCTC1116, Gram −, pH 6.6, 37 °C, triplicate averaged
Experimental: as §1, §2

P. aeruginosa KCTC2004 = assay: URDA, MEC; format: cell-based, Pseudomonas aeruginosa; settings: P. aeruginosa KCTC2004, Gram −, pH 6.6, 25 °C, triplicate averaged
Experimental: as §1, §2

S. aureus RM4220 = assay: URDA, MEC; format: cell-based, Staphylococcus aureus; settings: S. aureus RM4220, Gram +, pH 6.6, 37 °C, triplicate averaged
Experimental: as §1, §2

B. subtilis RM125 = assay: URDA, MEC; format: cell-based, Bacillus subtilis; settings: B. subtilis RM125, Gram +, pH 6.6, 37 °C, triplicate averaged
Experimental: as §1, §2

C. albicans KCTC7965 = assay: URDA, MEC; format: cell-based, Candida albicans; settings: C. albicans KCTC7965, yeast, pH 6.6, 37 °C, triplicate averaged
Experimental: as §1, §2

[3] = tested on: V. parahemolyticus KCCM41664; assay: URDA, MEC; format: cell-based, Vibrio parahemolyticus; settings: fish pathogen V. parahemolyticus KCCM41664, Gram −, pH 6.6, 25 °C, triplicate averaged
Experimental: as §1, §2

B. subtilis KCTC1021 = assay: Ultrasensitive radial diffusion assay (URDA), MEC; format: cell-based, Bacillus subtilis; settings: B. subtilis KCTC1021, Gram +, 10 mM PB pH 6.6, 37 °C, x-intercept of units vs log10 concentration, triplicate averaged
Experimental: as §1, §2

E. tarda H-4 = assay: URDA, MEC; format: cell-based, Edwardsiella tarda; settings: fish pathogen E. tarda H-4, Gram −, pH 6.6, 25 °C, triplicate averaged
Experimental: as §1, §2

Substance | Minimal Effectives Concentration (S. enterica KCTC2514) | Outer membrane permeabilization ability (NPN fluorescence) [1] | Minimal Effectives Concentration (A. hydrophila KCTC2358) | Minimal Effectives Concentration (S. iniae FP5229) | Minimal Effectives Concentration (M. luteus ATCC9341) | Inner cytoplasmic membrane permeabilization ability (ONPG hydrolysis, 420 nm) [2] | Minimal Effectives Concentration (E. coli ML35p) | Minimal Effectives Concentration (E. coli KCTC1116) | Minimal Effectives Concentration (P. aeruginosa KCTC2004) | Minimal Effectives Concentration (S. aureus RM4220) | Minimal Effectives Concentration (B. subtilis RM125) | Minimal Effectives Concentration (C. albicans KCTC7965) | Minimal Effectives Concentration [3] | Minimal Effectives Concentration (B. subtilis KCTC1021) | Minimal Effectives Concentration (E. tarda H-4)
MKLVKTWLKVLK-NH2 [ofLBP 6A] | 2.6 µg/mL | significant outer membrane permeabilization ability | 2.8 µg/mL | 1.2 µg/mL | 2.2 µg/mL | strong permeabilization ability | 1.8 µg/mL | 3.8 µg/mL | 4.6 µg/mL | 2.7 µg/mL | 1.8 µg/mL | 2.7 µg/mL | 0.9 µg/mL | 1.4 µg/mL | 62.5 µg/mL
Piscidin 1 [reference compound] | 7.0 µg/mL | strong permeabilization ability | 10.0 µg/mL | 6.5 µg/mL | 2.3 µg/mL | strong cytoplasmic membrane permeabilizing activity | 2.3 µg/mL | 7.0 µg/mL | 8.0 µg/mL | 2.2 µg/mL | 4.5 µg/mL | >62.5 µg/mL | 1.8 µg/mL | 2.3 µg/mL | 125.0 µg/mL
KLVKTWLKVLK [ofLBP 5A] | 3.5 µg/mL | significant outer membrane permeabilization ability | 5.0 µg/mL | 2.7 µg/mL | 8.0 µg/mL | no permeabilization ability | 1.6 µg/mL | 1.6 µg/mL | 8.0 µg/mL | 3.7 µg/mL | 4.2 µg/mL | 4.0 µg/mL | 1.2 µg/mL | 0.7 µg/mL | 250.0 µg/mL
KLVKTQLKVLK [ofLBP 4N] | 250.0 µg/mL | no inner or outer membrane permeability | >250.0 µg/mL | >250.0 µg/mL | 250.0 µg/mL | no permeabilization ability | 250.0 µg/mL | 1.5 µg/mL | >250.0 µg/mL | 62.5 µg/mL | 250.0 µg/mL | 125.0 µg/mL | 1.3 µg/mL | 62.5 µg/mL | >250.0 µg/mL
RFPGLMMKLLV-NH2 (C-terminus assumed) [ofLBP 1N] | 1.2 µg/mL | significant outer membrane permeabilization ability | 4.8 µg/mL | 5.3 µg/mL | 5.3 µg/mL | strong permeabilization ability | 0.8 µg/mL | 1.7 µg/mL | 6.4 µg/mL | 5.6 µg/mL | 1.0 µg/mL | 5.9 µg/mL | 2.2 µg/mL | 1.4 µg/mL | 125.0 µg/mL
RFPKLMMKLLV-NH2 [ofLBP 2A] | 1.2 µg/mL | significant outer membrane permeabilization ability | 3.6 µg/mL | 3.0 µg/mL | 5.7 µg/mL | strong permeabilization ability | 0.6 µg/mL | 1.2 µg/mL | 6.6 µg/mL | 5.0 µg/mL | 1.2 µg/mL | 5.6 µg/mL | 1.7 µg/mL | 0.8 µg/mL | 62.5 µg/mL
